One assay concerns BAX-BAK heterodimer. Briefly: Heterodimer immunoassay, BAX-BAK in lysates of treated cancer cell lines. To be noted: for BAX-BAK levels: HCT116 and MOLT-4 cancer cell lines (FIG. 4C). It is filed as cell-based, human. Set-up: BAX-BAK heterodimers: dose or concentration left out as unconfirmed. Here is the method: (§1) The immunoassays described herein were built on the Luminex xMAP multiplex technology platform using magnetic bead capture. Washes were performed with a 96-well magnetic plate washer (ELx405), BioTek). During incubation, the plates were placed on an orbital titer plate shaker (VWR International). Liquid handling was performed manually with calibrated, adjustable, precision multichannel pipettes (Rainin 8-Channel). All assays were performed in 96-well plates (BioPlex, BioRad) at 25° C.±3° C. by adding 10 μL of blocking solution (Myriad RBM) and 30 μL of calibrator, control, or unknown sample. Antibody-coupled beads were sonicated for 5 seconds and then vortexed at medium speed for 10 to 20 seconds to disperse the beads, and 10 μL beads (250 beads/analyte/μL) were added to each well per analyte. Plates were protected from light (Black Microplate Lid, VWR) and incubated for 1 hour at 25° C.±3° C. with shaking. Plates were washed with wash solution (Myriad RBM), and then 40 μL of detection antibody-biotin conjugate was added and plates were incubated for an additional hour with shaking. After incubation with the antibody-biotin conjugate, 40 μL of R-phycoerythrin-labeled streptavidin (Invitrogen) was added, and plates were incubated for 30 minutes with shaking. After a final wash, 100 μL of assay buffer was added to each well and plates were read on a Luminex 200 reader.
(§2) Further studies were conducted to evaluate the effect of BH3 mimetics on Bcl-2 family heterodimer levels and induction of apoptosis.
(§3) Similar studies were performed in AMO-1 plasmacytoma cells and Mv4-11 acute myeloid leukemia cells. […] The level of cleaved caspase-3 was also determined.

Assay [1] has as its system MV4-11 human AML xenograft model. To be noted: in vivo; compared with AMO1 xenografts; Kotschy et al.; cited from earlier work.
Another assay addresses T1, Bcl-2-BIM complexes (Homo sapiens, UniProt P10415).
T1 construct: from tissue; host or cells: AMO-1 xenograft tumors grown in mice
Briefly: Heterodimer complexes in AMO-1 xenograft tumor lysates after treatment, Bcl-2-BIM. It is filed as in vivo, mice. To be noted: 16 hours after treatment, NSC798846 25 mg/kg intravenously, NSC766270 100 mg/kg orally (FIG. 7A). On the procedure: as §1

Another assay has as its system AMO-1 cell line. To be noted: read-out: IC50 (sensitivity to S63845), Kotschy et al., Nature 2016; cited from earlier work.
Another assay relates to cleaved caspase-3. In words: Cleaved caspase-3 level in treated cancer cell lines. The class given is cell-based, human. Set-up: dose or concentration left out as unconfirmed. On the procedure:
as §2, §3

A further assay has as its system AMO1 xenografts. To be noted: intravenous injection; Kotschy et al.; cited from earlier work.
The next assay deals with MV411 xenograft tumors. In words: Response of AML model MV411 to BH3 mimetic treatment. The class given is in vivo, mice. To be noted: MV411 xenograft tumor lysates, 24 hours after treatment; NSC798846 25 mg/kg intravenously, NSC766270 100 mg/kg orally (FIG. 7B).
A further assay relates to BIM. The settings on record: AMO-1 xenograft tumor lysates, 16 hours after 25 mg/kg intravenously (FIG. 7A). Here is the method:
The effect of two different BH3 mimetics on heterodimer composition in the AMO-1 and MV411 models was next evaluated. […] Heterodimer complexes were measured in tumor lysates prepared from AMO-1 mice 16 hours after treatment and from MV411 mice 24 hours after treatment.

Another assay concerns BAK-BAX oligomerization. Briefly: Heterodimer complexes in AMO-1 xenograft tumor lysates after treatment, BAK-BAX. The class given is in vivo, mice. To be noted: 16 hours after treatment, 100 mg/kg orally (FIG. 7A). On the procedure:
as §1, with “Plates were washed with wash solution (Myriad RBM), and then 40 μL of detection antibody-biotin conjugate was added and plates were incubated for an additional hour with shaking. After incubation with the antibody-biotin conjugate, 40 μL of R-phycoerythrin-labeled streptavidin (Invitrogen) was added, and plates were incubated for 30 minutes with shaking.” left out
Heterodimer complexes were measured in AMO-1 and MV11 xenograft tumor lysates using the immunoassay described in Examples 3 and 4. […] The level of cleaved caspase-3 was also measured. […] Heterodimer composition was also measured in blood or bone marrow samples of 11 patients with CLL.

The subject of another assay is AMO-1 xenograft tumors. Briefly: Response of multiple myeloma model AMO-1 to BH3 mimetic treatment. The settings on record: 100 mg/kg orally, 16 hours (FIG. 7A). The class given is in vivo, mice.
In the next assay the target is BIM-Bcl-xL heterodimer (Homo sapiens, UniProt Q07817). Briefly: Heterodimer immunoassay, BIM-Bcl-xL in lysates of treated cancer cell lines. The class given is cell-based. Details: BIM-Bcl-xL heterodimeric complexes: dose or concentration left out as unconfirmed. Here is the method:
as §1, with “After incubation with the antibody-biotin conjugate, 40 μL of R-phycoerythrin-labeled streptavidin (Invitrogen) was added, and plates were incubated for 30 minutes with shaking.” left out, “reader. […]” for “reader.”
as §3

Another assay addresses T2, BIM-Mcl-1 heterodimer (Homo sapiens, UniProt Q07820).
T2 construct: Within cells, anti-apoptotic proteins exist primarily as complexed heterodimers with pro-apoptotic proteins; endogenous in cells; host or cells: AMO-1, MV4-11 (Mv411), HCT116, MOLT-4
Briefly: Heterodimer immunoassay, BIM-Mcl-1 in lysates of treated cancer cell lines. The class given is cell-based. Details: BIM-Mcl-1 heterodimers: dose or concentration left out as unconfirmed. On the procedure: as §1, §2, §3

[2] abbreviates: Mv4-11 cells, treated with vs untreated (FIG. 5D, 5E).
[3] abbreviates: AMO-1 cells, treated vs untreated (FIG. 5B, 5C).
The mark [4] stands for this setting: HCT116 and MOLT-4 cancer cell lines (FIG. 4D).
[5] abbreviates: Mv4-11 cells, treated vs untreated (FIG. 5D, 5E).

As usually defined, the IC50 is the concentration that gives 50% inhibition.

T2 sequence (Q07820 whole entry, one chain of several): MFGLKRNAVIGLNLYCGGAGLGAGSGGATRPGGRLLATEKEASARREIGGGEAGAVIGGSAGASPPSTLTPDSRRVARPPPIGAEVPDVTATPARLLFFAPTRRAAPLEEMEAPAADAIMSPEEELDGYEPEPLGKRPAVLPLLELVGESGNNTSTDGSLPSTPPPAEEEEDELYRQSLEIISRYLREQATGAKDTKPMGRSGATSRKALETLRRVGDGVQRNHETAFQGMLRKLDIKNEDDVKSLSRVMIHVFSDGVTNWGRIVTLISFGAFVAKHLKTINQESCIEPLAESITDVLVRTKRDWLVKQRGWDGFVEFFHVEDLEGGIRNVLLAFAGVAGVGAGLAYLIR
Sequence of BIM-Bcl-xL heterodimer (Q07817 whole entry, one chain of several): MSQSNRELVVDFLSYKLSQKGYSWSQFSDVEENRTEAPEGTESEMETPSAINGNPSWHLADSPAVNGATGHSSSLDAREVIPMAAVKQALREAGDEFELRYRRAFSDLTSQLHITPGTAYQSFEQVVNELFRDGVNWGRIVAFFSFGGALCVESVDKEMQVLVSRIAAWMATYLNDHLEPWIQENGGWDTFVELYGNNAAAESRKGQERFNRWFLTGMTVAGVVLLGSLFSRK
T1 sequence (P10415 whole entry, one chain of several): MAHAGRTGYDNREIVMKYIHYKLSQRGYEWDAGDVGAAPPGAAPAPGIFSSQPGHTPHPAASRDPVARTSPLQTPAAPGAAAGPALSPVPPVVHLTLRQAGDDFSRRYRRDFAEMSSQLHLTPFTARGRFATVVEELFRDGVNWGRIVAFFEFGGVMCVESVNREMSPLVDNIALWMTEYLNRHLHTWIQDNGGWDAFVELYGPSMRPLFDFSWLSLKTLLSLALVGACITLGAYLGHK

For the compound `Cc1c(-c2c(-c3ccc(F)o3)sc3ncnc(O[C@H](Cc4ccccc4OCc4ccnn4CC(F)(F)F)C(=O)O)c23)ccc(OCCN2CCN(C)CC2)c1Cl` [S63845], the BAX-BAK heterodimers entry in the assay with BAX-BAK heterodimer (AMO-1 cells, treated with vs untreated (FIG. 5B)) is given as “increase”; in the assay on BAX-BAK heterodimer (setting [2]), “significant increase”. Further, the BAX-BAK levels result in the assay with BAX-BAK heterodimer was “increased”. Further, in [1], the “activity in MV4-11 human AML xenograft model” value is recorded as “less potent activity”. In addition, on Bcl-2-BIM complexes, the Bcl-2-BIM complexes result was “disruption”. Also, the IC50 in the assay with AMO-1 cell line was below 0.1 µM. For the same compound, the “cleaved caspase-3” value is “increase” with cleaved caspase-3 (setting [3]), “increased activation” in the assay with cleaved caspase-3 (setting [4]) and “significant increase” in the assay with cleaved caspase-3 (setting [5]). For the same compound, in the assay with AMO1 xenografts, the “anti-tumor activity in AMO1 xenografts” value is listed as “dose-dependent anti-tumor activity”. Further, the “disrupting the balance of BIM complexes and initiating caspase-3 activation and cell death” value in the assay on MV411 xenograft tumors is “equally effective”. Besides, the “BIM (overall)” value in the assay on BIM is given as “overall degradation”.

As for `CC1(C)CCC(CN2CCN(c3ccc(C(=O)NS(=O)(=O)c4ccc(NCC5CCOCC5)c([N+](=O)[O-])c4)c(Oc4cnc5[nH]ccc5c4)c3)CC2)=C(c2ccc(Cl)cc2)C1` [NSC766270], the “BAK-BAX oligomerization (mitochondrial poration marker), subsequent caspase-3 activation and cell death” value in the assay with BAK-BAX oligomerization is listed as “did not initiate”. For the same compound, the “effectiveness of treatment in multiple myeloma model AMO-1” value in the assay with AMO-1 xenograft tumors is recorded as “ineffective”. The “disrupting the balance of BIM complexes and initiating caspase-3 activation and cell death” value in the assay with MV411 xenograft tumors is “equally effective”.

`CC1(C)CCC(c2ccc(Cl)cc2)=C(CN2CCN(c3ccc(C(=O)NS(=O)(=O)c4ccc(N[C@H](CCN5CCOCC5)CSc5ccccc5)c(S(=O)(=O)C(F)(F)F)c4)cc3)CC2)C1` [novitoclax]: the BAX-BAK levels result in the assay on BAX-BAK heterodimer was “increased”. The BAX-BAK heterodimers result in the assay with BAX-BAK heterodimer (setting [2]) is on record as “increase”. For the same compound, the BIM-Bcl-xL levels entry on BIM-Bcl-xL heterodimer (HCT116 and MOLT-4 cancer cell lines (FIG. 4A)) is “disrupted”. Further, the BIM-Bcl-xL heterodimeric complexes result on BIM-Bcl-xL heterodimer (Mv4-11 cells, treated vs untreated (FIG. 5E)) is “decrease”. Besides, the BIM-Mcl-1 levels entry at BIM-Mcl-1 heterodimer (AMO-1 and Mv411 cell lines, in vitro (FIG. 3A)) is “largely unaffected”; on BIM-Mcl-1 heterodimer (HCT116 and MOLT-4 cancer cell lines (FIG. 4B)) it was “increased”. Further, the BIM-Mcl-1 heterodimers result at BIM-Mcl-1 heterodimer (setting [2]) is reported as “increase”. For the same compound, the “cleaved caspase-3” value in the assay with cleaved caspase-3 (setting [3]) was “did not lead to a significant increase”; in the assay with cleaved caspase-3 (setting [4]), “increased activation”; with cleaved caspase-3 (setting [5]), “increase”.
